From PubChem BioAssay AID2060485 (Molecular Pharmacology Branch, DTP, NCI, 2025)
pIC50: −log10 of the molar value.

Tested on: A375 multi-cell spheroids with HUVEC/MSC, viability
Experiment: Anticancer human tumor A375 cell line growth inhibition [GQUAD];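 further: spheroids exposed to compounds for seven days before readout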
Conditions: for pIC50: curve of first compound; for viability, T/C: stronger effect = lower value
Outline: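 Tumor cells were grown as complex spheroids with HUVEC endothelial cells and mesenchymal stem cells as stroma. G-quadruplex stabilizers were combined with targeted agents over half-log dilutions from near the clinical Cmax, or from 10 microM.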

[1] = second compound 0.0316 µM, first compound 0.0316 µM
[2] = second compound 0.0316 µM, first compound 0.1 µM
[3] = second compound 0.0316 µM, first compound 0.316 µM
[4] = second compound 0.0316 µM, first compound 1 µM
[5] = second compound 0.0316 µM, first compound 3.16 µM
[6] = second compound 0.0316 µM, first compound 10 µM
[7] = second compound 0.1 µM, first compound 0.0316 µM
[8] = second compound 0.1 µM, first compound 0.1 µM
[9] = second compound 0.1 µM, first compound 0.316 µM
[10] = second compound 0.1 µM, first compound 1 µM
[11] = second compound 0.1 µM, first compound 3.16 µM
[12] = second compound 0.1 µM, first compound 10 µM
[13] = second compound 0.316 µM, first compound 0.0316 µM
[14] = second compound 0.316 µM, first compound 0.1 µM
[15] = second compound 0.316 µM, first compound 0.316 µM
[16] = second compound 0.316 µM, first compound 1 µM
[17] = second compound 0.316 µM, first compound 3.16 µM
[18] = second compound 0.316 µM, first compound 10 µM
[19] = second compound 1 µM, first compound 0.0316 µM
[20] = second compound 1 µM, first compound 0.1 µM
[21] = second compound 1 µM, first compound 0.316 µM
[22] = second compound 1 µM, first compound 1 µM
[23] = second compound 1 µM, first compound 3.16 µM
[24] = second compound 1 µM, first compound 10 µM
[25] = second compound 3.16 µM, first compound 0.0316 µM
[26] = second compound 3.16 µM, first compound 0.1 µM
[27] = second compound 3.16 µM, first compound 0.316 µM
[28] = second compound 3.16 µM, first compound 1 µM
[29] = second compound 3.16 µM, first compound 3.16 µM
[30] = second compound 3.16 µM, first compound 10 µM
[31] = second compound 10 µM, first compound 0.0316 µM
[32] = second compound 10 µM, first compound 0.1 µM
[33] = second compound 10 µM, first compound 0.316 µM
[34] = second compound 10 µM, first compound 1 µM
[35] = second compound 10 µM, first compound 3.16 µM
[36] = second compound 10 µM, first compound 10 µM

`O=C(c1cc(Cc2n[nH]c(=O)c3ccccc23)ccc1F)N1CCN(C(=O)C2CC2)CC1` + Cc1[nH]c2ccc(F)cc2c1-c1nc2c3cccnc3c3ncccc3c2[nH]1 was tested, and the pIC50 (second compound 0.0316 µM) was less than 5.00, the pIC50 (second compound 0.1 µM) was less than 5.00 and the pIC50 (second compound 0.316 µM) was less than 5.00. For the same compound, the pIC50 (second compound 1 µM) was less than 5.00, the pIC50 (second compound 3.16 µM) was less than 5.00 and the pIC50 (second compound 10 µM) was less than 5.00. For the same compound, the viability, T/C [1] was 100%, the viability, T/C [2] was 88.9% and the viability, T/C [3] was 86.7%. It also gave a viability, T/C [4] of 102%, a viability, T/C [5] of 110% and a viability, T/C [6] of 80.6%. The viability, T/C [7] was 101%, the viability, T/C [8] was 97.4% and the viability, T/C [9] was 86.7%. For the same compound, the viability, T/C [10] was 103%, the viability, T/C [11] was 96.1% and the viability, T/C [12] was 91.5%. The viability, T/C [13] was 92.2%, the viability, T/C [14] was 105% and the viability, T/C [15] was 105%. It also gave a viability, T/C [16] of 94.8%, a viability, T/C [17] of 111% and a viability, T/C [18] of 83%. For the same compound, the viability, T/C [19] was 96.2%, the viability, T/C [20] was 95.5% and the viability, T/C [21] was 102%. For the same compound, the viability, T/C [22] was 102%, the viability, T/C [23] was 117% and the viability, T/C [24] was 74.7%. The viability, T/C [25] was 80.5%, the viability, T/C [26] was 78.7% and the viability, T/C [27] was 84.3%. For the same compound, the viability, T/C [28] was 73.4%, the viability, T/C [29] was 74.7% and the viability, T/C [30] was 61.6%. The viability, T/C [31] was 94.1%, the viability, T/C [32] was 90.5% and the viability, T/C [33] was 105%. The viability, T/C [34] was 90.8%, the viability, T/C [35] was 91.3% and the viability, T/C [36] was 72.1%.

`Nc1ccn(C2OC(CO)C(O)C2(F)F)c(=O)n1` (stereo unspecified) + CN(C)c1ccc(Nc2c3ccc(NC(=O)CCN4CCCC4)cc3nc3cc(NC(=O)CCN4CCCC4)ccc23)cc1 was tested, and the pIC50 (second compound 0.0316 µM) was greater than 7.50, the pIC50 (second compound 0.1 µM) was greater than 7.50 and the pIC50 (second compound 0.316 µM) was greater than 7.50. It also gave a pIC50 (second compound 1 µM) greater than 7.50, a pIC50 (second compound 3.16 µM) greater than 7.50 and a pIC50 (second compound 10 µM) greater than 7.50. For the same compound, the viability, T/C [1] was 13.1%, the viability, T/C [2] was 5.96% and the viability, T/C [3] was 5.05%. It also gave a viability, T/C [4] of 6.71%, a viability, T/C [5] of 7.93% and a viability, T/C [6] of 7.84%. The viability, T/C [7] was 12.4%, the viability, T/C [8] was 6.04% and the viability, T/C [9] was 6.62%. The viability, T/C [10] was 6.98%, the viability, T/C [11] was 7.52% and the viability, T/C [12] was 8.82%. The viability, T/C [13] was 13.4%, the viability, T/C [14] was 5.96% and the viability, T/C [15] was 6.92%. For the same compound, the viability, T/C [16] was 7.41%, the viability, T/C [17] was 8.24% and the viability, T/C [18] was 9.65%. For the same compound, the viability, T/C [19] was 11%, the viability, T/C [20] was 6.99% and the viability, T/C [21] was 6.31%. For the same compound, the viability, T/C [22] was 6.93%, the viability, T/C [23] was 7.59% and the viability, T/C [24] was 10.1%. The viability, T/C [25] was 13.2%, the viability, T/C [26] was 6.34% and the viability, T/C [27] was 6.54%. It also gave a viability, T/C [28] of 7.74%, a viability, T/C [29] of 8.41% and a viability, T/C [30] of 9.18%. The viability, T/C [31] was 11.4%, the viability, T/C [32] was 5.96% and the viability, T/C [33] was 6.62%. For the same compound, the viability, T/C [34] was 6.28%, the viability, T/C [35] was 9.34% and the viability, T/C [36] was 7.97%.

In the case of `CCc1c2c(nc3ccc(O)cc13)-c1cc3c(c(=O)n1C2)COC(=O)[C@]3(O)CC` + CN(C)c1ccc(Nc2c3ccc(NC(=O)CCN4CCCC4)cc3nc3cc(NC(=O)CCN4CCCC4)ccc23)cc1, the pIC50 (second compound 0.0316 µM) was greater than 9.00, the pIC50 (second compound 0.1 µM) was greater than 9.00 and the pIC50 (second compound 0.316 µM) was greater than 9.00. For the same compound, the pIC50 (second compound 1 µM) was greater than 9.00, the pIC50 (second compound 3.16 µM) was greater than 9.00 and the pIC50 (second compound 10 µM) was greater than 9.00. The viability, T/C (second compound 0.0316 µM, first compound 0.000999 µM) was 41.2%, the viability, T/C (second compound 0.0316 µM, first compound 0.00316 µM) was 16.1% and the viability, T/C (second compound 0.0316 µM, first compound 0.00999 µM) was 10.6%. The viability, T/C [1] was 15%, the viability, T/C (second compound 0.0316 µM, first compound 0.0999 µM) was 5.91% and the viability, T/C [3] was 0.85%. For the same compound, the viability, T/C (second compound 0.1 µM, first compound 0.000999 µM) was 39%, the viability, T/C (second compound 0.1 µM, first compound 0.00316 µM) was 14.4% and the viability, T/C (second compound 0.1 µM, first compound 0.00999 µM) was 11.6%. The viability, T/C [7] was 13.6%, the viability, T/C (second compound 0.1 µM, first compound 0.0999 µM) was 5.7% and the viability, T/C [9] was 0.92%. The viability, T/C (second compound 0.316 µM, first compound 0.000999 µM) was 40.8%, the viability, T/C (second compound 0.316 µM, first compound 0.00316 µM) was 14.2% and the viability, T/C (second compound 0.316 µM, first compound 0.00999 µM) was 11.6%. The viability, T/C [13] was 15.8%, the viability, T/C (second compound 0.316 µM, first compound 0.0999 µM) was 5.11% and the viability, T/C [15] was 1.17%. For the same compound, the viability, T/C (second compound 1 µM, first compound 0.000999 µM) was 44.3%, the viability, T/C (second compound 1 µM, first compound 0.00316 µM) was 17.9% and the viability, T/C (second compound 1 µM, first compound 0.00999 µM) was 12.2%. It also gave a viability, T/C [19] of 15.3%, a viability, T/C (second compound 1 µM, first compound 0.0999 µM) of 5% and a viability, T/C [21] of 0.92%. For the same compound, the viability, T/C (second compound 3.16 µM, first compound 0.000999 µM) was 45.6%, the viability, T/C (second compound 3.16 µM, first compound 0.00316 µM) was 14.8% and the viability, T/C (second compound 3.16 µM, first compound 0.00999 µM) was 10.9%. The viability, T/C [25] was 12.6%, the viability, T/C (second compound 3.16 µM, first compound 0.0999 µM) was 6.28% and the viability, T/C [27] was 1.02%. For the same compound, the viability, T/C (second compound 10 µM, first compound 0.000999 µM) was 46.9%, the viability, T/C (second compound 10 µM, first compound 0.00316 µM) was 18.2% and the viability, T/C (second compound 10 µM, first compound 0.00999 µM) was 10.9%. The viability, T/C [31] was 13%, the viability, T/C (second compound 10 µM, first compound 0.0999 µM) was 6.82% and the viability, T/C [33] was 0.96%.
